The assay addresses T1, Interleukin-23 receptor (Homo sapiens, UniProt Q5VWK5).
T1 sequence (Q5VWK5 whole entry): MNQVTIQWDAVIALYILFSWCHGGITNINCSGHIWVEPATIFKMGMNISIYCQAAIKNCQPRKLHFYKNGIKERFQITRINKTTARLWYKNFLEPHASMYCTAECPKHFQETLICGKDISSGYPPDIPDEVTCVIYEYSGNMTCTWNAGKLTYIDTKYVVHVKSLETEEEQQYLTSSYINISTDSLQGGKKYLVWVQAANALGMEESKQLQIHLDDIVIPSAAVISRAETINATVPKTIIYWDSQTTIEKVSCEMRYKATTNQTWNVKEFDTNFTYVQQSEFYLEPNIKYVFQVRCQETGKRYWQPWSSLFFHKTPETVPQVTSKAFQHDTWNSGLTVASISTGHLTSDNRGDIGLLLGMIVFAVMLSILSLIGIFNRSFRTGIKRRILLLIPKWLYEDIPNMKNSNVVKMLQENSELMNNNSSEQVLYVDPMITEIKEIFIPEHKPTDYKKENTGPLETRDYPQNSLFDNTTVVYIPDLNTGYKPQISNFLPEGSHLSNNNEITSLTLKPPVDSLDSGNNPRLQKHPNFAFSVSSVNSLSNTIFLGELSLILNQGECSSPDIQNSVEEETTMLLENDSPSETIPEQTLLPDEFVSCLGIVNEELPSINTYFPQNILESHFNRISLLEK
The assay is described as follows: Binding affinity to Interleukin-23 receptor in HEK293 cells transfected with firefly luciferase reporter incubated for 5 hrs by luminescence based analysis. The class given is cell-based.

`CC(=O)NCCCC[C@@H]1NC(=O)[C@H](Cc2c[nH]c3c(C)cccc23)NC(=O)[C@H]([C@@H](C)O)NC(=O)[C@H](CC(N)=O)NC(=O)[C@@H](NC(=O)CCOCCOCC[N+](C)(C)C)C(C)(C)SSC(C)(C)[C@@H](C(=O)N[C@@H](Cc2ccc(OCCN)cc2)C(=O)N[C@@H](Cc2ccc3ccccc3c2)C(=O)NC2(C(=O)N[C@@H](CCC(=O)O)C(=O)N[C@@H](CC(N)=O)C(=O)N[C@@H](Cc3cccnc3)C(=O)N(C)CC(N)=O)CCOCC2)NC1=O` came in with an IC50 of 12 nM.

The term IC50 denotes the concentration at which inhibition is half-maximal. Higher therefore signals weaker potency.

These data come from ChEMBL document CHEMBL6109160, “Novel Cyclic Peptides as Interleukin-23 Inhibitor for Treating Inflammatory Disorders” (ACS Med Chem Lett, 2025).
